Source: patent US9919941B2, “Multiple uses of amine salts for industrial water treatment” (AMSA, Inc., priority 2012, dated 2018)
Several values for one entry are separate records, joined by “and”; a condition that tells them apart may be missing. Equal values may be shown once.

Experiments:
[1] = calcium carbonate scale inhibition (conductometric titration, supersaturation ratio Sr)
Description: To a 100 mL beaker were added 60 mL of HPLC-grade water and 3 mL of 0.1 M calcium chloride. An appropriate amount (0.5-4 mL) of an aqueous solution of the inhibitor compound of Formula (I) to be tested was then added. The solution was magnetically stirred at a constant speed for all experiments. The sample was then titrated with 0.1 M sodium carbonate. After addition of each 0.2 mL aliquot of sodium carbonate titrant, the solution was mixed for 1 min and then the conductivity of the solution measured.
As titrant is added the conductivity increases in a linear fashion. When the supersaturation point is reached, the conductivity decreases and precipitation begins. This is considered the endpoint of the titration. The resulting titration endpoint volumes are used to calculate a relative supersaturation ratio (Sr). This is the ratio of the supersaturation of calcium carbonate in the presence of the compound of Formula (I) being tested to the value of the supersaturation of water without inhibitor (distilled water plus 3 mL of 0.1 M calcium chloride). Thus, compounds with Sr>1 are displaying scale inhibition.
The scale inhibition performance of various compounds of Formula (I) and comparative compounds were compared at the same molar concentration. These compounds were tested at 60 μM concentration except where noted otherwise. Compound numbers are from Table 1.

[2] = mild steel corrosion inhibition, ASTM G31-72 coupon weight loss
Description: (§1) Corrosion inhibition studies of various compounds of Formula (I) were conducted according to ASTM method G31-72 (2004). The following is the general test method.
(§2) Aqueous solutions of the test compound (900 mL) were prepared with city water for mild steel corrosion studies or a dilute sea salt solution (1000 ppm in deionized water) for copper corrosion studies. The solutions were magnetically stirred at a constant rate in a 1 L beaker and three coupons of either mild steel or copper were suspended in each beaker. After 5 days (steel) or 7 days (copper), the coupons were removed and cleaned according to ASTM method G1-03. Average weight loss was determined for each set of three coupons and then converted to corrosion rate in terms of mils per year (mpy).
These tests compare the corrosion inhibition of compounds of Formula (I), namely from Table 1, in the first set of comparisons, Compound A with Compound 13, and Compound B with Compound 1, and with 2-hydroxypropane-1,2,3-tricarboxylic acid. Thus five samples were tested relative to a blank and a standard, (1-hydroxyethan-1,1-diyl)bis(phosphonic acid), after 5 days at 26 μM concentrations. […] Concentrations were 26 μM.
Additional mild steel corrosion tests were performed at 130 μM concentration of compounds of Formula (I) and comparative compounds for 5 days. The next test compared the corrosion inhibition of Compound 8 with 2,3-dihydroxybutanedioic acid and Compound B, and Compound 4 with (1-hydroxyethan-1,1-diyl)bis(phosphonic acid) and Compound B. Also included was Compound 1 for reference. Concentrations in this set were 130 μM.

[3] = copper corrosion inhibition, ASTM G31-72 coupon weight loss
Description: as §1, §2
The first test of copper corrosion inhibition compared Compound A with Compound 13 (from Table 1), 2-hydroxypropane-1,2,3-tricarboxylic acid, and a commercial inhibitor, Na-TAI.

[4] = 5 days, 130 μM, Table 4 (blank 24 mpy)
[5] = 130 μM, Table 5 (blank 12.5 mpy)

Compound: O=C(O)C(O)C(O)C(O)C(O)C(=O)O (stereo not drawn) [2,3,4,5-tetrahydroxyhexanedioic acid]
- Sr (supersaturation ratio) ([1]; 60 μM): 1.4

Compound: O=C(O)C(O)C(O)C(=O)O (stereo not drawn) [2,3-Dihydroxybutanedioic acid]
- Sr (supersaturation ratio) ([1]; 60 μM): 1.0
- Inhibition relative to blank [2, 4]: 20%

Compound: O=C(O)CC(O)(CC(=O)O)C(=O)O [2-hydroxypropane-1,2,3-tricarboxylic acid]
- Inhibition relative to blank ([3]; 42 μM, Table 7): 9%
- Inhibition relative to blank ([3]; 7 days, 17 μM, Table 6): 0%
- Sr (supersaturation ratio) ([1]; 63 μM): 1.2
- Inhibition relative to blank ([2]; 5 days, 26 μM, Table 3, 26 µM): 9.8% and 10%

Compound: O=C(O)CCC(CC(=O)O)(C(=O)O)P(=O)(O)O (stereo not drawn) [2-phosphonobutane-1,2,4-tricarboxylic acid]
- Sr (supersaturation ratio) ([1]; 5.9 μM): 3.0

Compound: CC(O)(P(=O)(O)O)P(=O)(O)O [(1-hydroxyethan-1,1-diyl)bis(phosphonic acid)]
- Sr (supersaturation ratio) ([1]; 45 μM): 2.5
- Sr (supersaturation ratio) ([1]; 60 μM): 4.4
- Inhibition relative to blank ([2]; 5 days, 26 μM, Table 3): 36%
- Inhibition relative to blank [2, 4]: 62%

Compound: O=C(O)CCC(=O)O [Butanedioic acid]
- Sr (supersaturation ratio) ([1]; 60 μM): 1.0

Compound: CC(O)(P(=O)(O)O)P(=O)(O)O.CCCCCCCCCCOCCCN [Compound 4, Salt of Oxyamine (II) and (1-Hydroxyethan-1,1-diyl)bis(phosphonic acid) (1:1 Molar Stoichiometry)]
- Sr (supersaturation ratio) ([1]; 60 μM): 4.3
- Inhibition relative to blank [2, 4]: 68%

Compound: O=C(O)C(=O)O [Ethanedioic acid]
- Inhibition relative to blank [2, 5]: −16%

Compound: [Na+].c1ccc2[n-]nnc2c1 [Na-TAI, sodium salt of 1,2,3-triaza-1H-indene]
- Inhibition relative to blank ([3]; 7 days, 17 μM, Table 6): 71%

Compound: O=P(O)(O)O [Trihydroxidooxidophosphorus]
- Inhibition relative to blank [2, 5]: 40%

Compound: Salt of Oxyamine (II) and 2,3-Dihydroxybutanedioic acid salt (1:1 molar stoichiometry) [Compound 8]
- Sr (supersaturation ratio) ([1]; 60 μM): 1.3
- Sr (supersaturation ratio) ([1]; 120 μM): 1.5
- Inhibition relative to blank [2, 4]: 44%

Compound: Salt of Oxyamine (II) and Butanedioic acid salt (1:1 molar stoichiometry) [Compound 10]
- Sr (supersaturation ratio) ([1]; 60 μM): 1.0

Compound: Salt of Oxyamine (II) and Ethanedioic acid salt (1:1 molar stoichiometry [Compound 2]
- Inhibition relative to blank [2, 5]: −21%

Compound: Salt of Oxyamine (II) and Trihydroxidooxidophosphorus salt (1:1 molar stoichiometry) [Compound 3]
- Inhibition relative to blank [2, 5]: 55%
